The source of these data is article PMC9087011 (Clinical Pharmacology and Therapeutics, 2022).

The Tmax is the time from dosing to the highest level. Usually Cmax stands for the maximum level reached in the sampled fluid or tissue.

Series [1] deals with SARS‐CoV‐2 viral replication. Conditions: in vitro EC90 adjusted for plasma protein binding; cited from earlier work.
Series [2] can be described thus: clinical. As to conditions: human, in vivo.
Series [3] has as its system cytochrome P450 3A4 (CYP3A4). Conditions: cited from earlier work.
Series [4] is described as follows: Overall safety and tolerability. In kind it is in vivo, human. As to conditions: for Safety and tolerability (overall): SAD, MAD and supratherapeutic cohorts, healthy participants.
Series [5] deals with SARS‐CoV‐2. Conditions: oral administration; cited from earlier work.
For series [6] the following is noted: 500 mg single dose, fasted, no ritonavir; individual values (N2=2).

As for `CC(C)(C)[C@H](NC(=O)C(F)(F)F)C(=O)N1C[C@H]2[C@@H]([C@H]1C(=O)N[C@H](C#N)C[C@@H]1CCNC1=O)C2(C)C` [Nirmatrelvir], the “total plasma EC90 (90% inhibition of SARS‐CoV‐2 viral replication)” value in series [1] was 0.292 µg/mL. For the same compound, the time to peak (Tmax) amounted to 1 h in series [2], 0.634 h in series [2] (150 mg) and 1 h in series [2] (500 mg). Further, the Cmax in series [2] (150 mg) was 668 ng/mL; in series [2] (500 mg), 674 ng/mL. Also, the Metabolism result in series [3] is “primarily metabolized by cytochrome P450 3A4 (CYP3A4)”. The “Safety and tolerability (overall)” value in series [4] is “safe and well‐tolerated”; in series [4] (listed as nirmatrelvir) it was “no safety concerns were identified”. Also, the “Changes in laboratory values (≥ grade 2), vital sign or ECG measurements” value in series [4] (with or without ritonavir) is recorded as “No clinically meaningful changes”. Further, the “Effect on pulmonary viral titers” value in series [5] is given as “dose‐dependent reduction of pulmonary viral titers”. Moreover, the AUCinf in series [6] is 5,450 ng hour/mL. For the same compound, the “t ½” value in series [6] came out at 25.6 h.
